Experimental data as given in patent US9051591B2, “Bacterium of enterobacteriaceae family producing L-aspartic acid or L-aspartic acid-derived metabolites and a method for producing L-aspartic acid or L-aspartic acid-derived metabolites” (AJINOMOTO CO., INC., priority 2010, dated 2015).
Values joined by “and” are separate entries in the source; they are usually repeats but may differ in a detail not shown here. Equal values may be shown once. Read-outs that look alike come from different tables or passages of the source.

Assays:
ADH (Polaromonas sp.) = target: T1, ADH (Polaromonas sp.) (Polaromonas sp., UniProt Q126F5); test: Screening of substrate specificity, ADH; details: 20 mM substrate; for Deamination activity, ADH: relative to aspartate, 2 mM NAD^+, pH 9.8; for Amination activity, ADH: relative to oxaloacetate, […] NADH, pH 9
T1 sequence (Q126F5 1-267): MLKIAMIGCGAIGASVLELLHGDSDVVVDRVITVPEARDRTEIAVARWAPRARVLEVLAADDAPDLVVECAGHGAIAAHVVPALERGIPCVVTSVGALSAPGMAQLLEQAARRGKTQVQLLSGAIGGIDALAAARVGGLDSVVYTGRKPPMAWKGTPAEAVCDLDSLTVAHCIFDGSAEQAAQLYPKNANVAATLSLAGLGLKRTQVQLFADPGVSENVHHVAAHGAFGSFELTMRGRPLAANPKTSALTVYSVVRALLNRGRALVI

ADH-Re = test: Screening of substrate specificity, ADH-Re; details: 20 mM substrate; for Deamination activity, ADH-Re: relative to aspartate, 2 mM NAD^+, pH 9.8; for Amination activity, ADH-Re: relative to oxaloacetate, […] NADH, pH 9
ADH-Bj = test: Screening of substrate specificity, ADH-Bj; details: relative to aspartate; 20 mM substrate, 2 mM NADP^+, pH 9.8
ADH1-Rp = test: Screening of substrate specificity, ADH1-Rp; details: relative to aspartate; 20 mM substrate, 2 mM NADP^+, pH 9.8
[1] = target: T2, purified ADH (Polaromonas sp.) (Polaromonas sp., UniProt Q126F5); test: Screening of alternative substrates for purified ADH; details: 10 mM, 29° C.; for ability to replace aspartic acid in reverse reaction: 1 mM NAD^+; for ability to replace oxaloacetate in forward reaction: […] NADH, 50 mM NH4Cl
T2 sequence (Q126F5 1-267): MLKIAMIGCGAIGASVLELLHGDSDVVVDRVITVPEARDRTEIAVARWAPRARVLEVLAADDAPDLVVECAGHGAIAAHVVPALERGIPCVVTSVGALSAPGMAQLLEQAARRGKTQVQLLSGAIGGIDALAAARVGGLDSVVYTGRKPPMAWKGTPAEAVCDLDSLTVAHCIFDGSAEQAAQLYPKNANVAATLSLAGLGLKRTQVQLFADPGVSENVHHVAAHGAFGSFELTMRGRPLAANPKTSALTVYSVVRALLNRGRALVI

Polaromonas sp. ADH = target: T3, Polaromonas sp. ADH (Polaromonas sp., UniProt Q126F5); details: Michaelis-Menten plots
T3 sequence (Q126F5 1-267): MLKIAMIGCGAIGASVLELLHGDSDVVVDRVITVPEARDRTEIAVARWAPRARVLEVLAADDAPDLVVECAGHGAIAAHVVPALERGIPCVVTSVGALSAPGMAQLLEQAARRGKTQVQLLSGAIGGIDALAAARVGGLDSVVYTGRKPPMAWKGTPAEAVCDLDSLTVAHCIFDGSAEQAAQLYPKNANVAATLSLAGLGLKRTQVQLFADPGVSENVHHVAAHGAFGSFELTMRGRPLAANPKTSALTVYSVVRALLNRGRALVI

[2] = target: T4, Polaromonas sp. aspartate dehydrogenase (Polaromonas sp., UniProt Q126F5); test: Regulatory properties of the ADH; details: for effect on ADH activity in forward and reverse reactions: 29° C., pH 9.8
T4 sequence (Q126F5 1-267): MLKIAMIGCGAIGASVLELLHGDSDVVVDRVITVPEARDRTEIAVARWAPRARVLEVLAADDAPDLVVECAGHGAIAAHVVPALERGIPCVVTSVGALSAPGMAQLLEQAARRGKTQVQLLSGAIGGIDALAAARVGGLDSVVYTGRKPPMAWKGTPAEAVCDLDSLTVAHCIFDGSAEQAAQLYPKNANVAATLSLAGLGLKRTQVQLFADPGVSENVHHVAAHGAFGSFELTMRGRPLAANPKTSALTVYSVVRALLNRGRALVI

[3] = target: Bradyrhizobium japonicum ADH-Bj (Bradyrhizobium diazoefficiens, UniProt Q89FY1); test: Kinetic parameters of the Bradyrhizobium japonicum ADH-Bj
Bradyrhizobium japonicum ADH-Bj, sequence (Q89FY1 other isoform, or with tags, fused parts or gaps): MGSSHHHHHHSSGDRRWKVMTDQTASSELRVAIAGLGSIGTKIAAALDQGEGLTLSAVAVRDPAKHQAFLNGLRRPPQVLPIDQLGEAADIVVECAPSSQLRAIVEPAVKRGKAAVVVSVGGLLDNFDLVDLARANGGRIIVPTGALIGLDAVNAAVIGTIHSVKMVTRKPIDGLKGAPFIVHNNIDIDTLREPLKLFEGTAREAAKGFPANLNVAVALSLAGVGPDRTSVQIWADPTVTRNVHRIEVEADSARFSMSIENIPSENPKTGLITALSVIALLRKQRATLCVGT

[4] = target: Rhodopseudomonas palustris ADH1-Rp (Rhodopseudomonas palustris, UniProt Q2J3V1); test: Kinetic parameters of the Rhodopseudomonas palustris AspDH 1
Rhodopseudomonas palustris ADH1-Rp, sequence (Q2J3V1 entry or part of it): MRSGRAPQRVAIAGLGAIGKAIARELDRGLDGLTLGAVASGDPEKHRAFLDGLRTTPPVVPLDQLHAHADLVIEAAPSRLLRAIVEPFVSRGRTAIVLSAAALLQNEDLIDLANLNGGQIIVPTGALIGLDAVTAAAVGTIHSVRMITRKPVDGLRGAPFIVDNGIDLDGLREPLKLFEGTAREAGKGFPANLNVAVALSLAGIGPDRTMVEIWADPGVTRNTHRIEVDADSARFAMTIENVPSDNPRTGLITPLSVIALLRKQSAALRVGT

[5] = target: T5, Ralstonia eutropha ADH-Re (Cupriavidus necator, UniProt Q0K391); details: Oxaloacetate reductive amination; Michaelis-Menten plots
T5 sequence (Q0K391 with tags, fused parts or gaps): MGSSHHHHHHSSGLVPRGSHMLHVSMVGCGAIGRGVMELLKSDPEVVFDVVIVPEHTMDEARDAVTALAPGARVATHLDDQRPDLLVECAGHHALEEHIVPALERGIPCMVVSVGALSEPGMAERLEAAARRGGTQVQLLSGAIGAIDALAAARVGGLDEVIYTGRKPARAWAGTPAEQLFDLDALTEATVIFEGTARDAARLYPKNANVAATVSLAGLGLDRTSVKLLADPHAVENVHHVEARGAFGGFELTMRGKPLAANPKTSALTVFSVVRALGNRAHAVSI

[6] = Aspartic acid oxidative deamination
[7] = Aspartate oxidative deamination
[8] = Oxaloacetate reductive amination

SMILES: C[C@H](N)C(=O)O [Alanine]
- Deamination activity, ADH (ADH (Polaromonas sp.)): na (no activity (<2%))
- Deamination activity, ADH-Re (ADH-Re): na (no activity (<2%))
- Deamination activity, ADH-Bj (ADH-Bj): na (no activity (<2%))
- Deamination activity, ADH1-Rp (ADH1-Rp): na (no activity (<2%))
- ability to replace aspartic acid in reverse reaction [1]: No activity

SMILES: N[C@@H](CC(=O)O)C(=O)O [Aspartic acid]
- Km (Polaromonas sp. ADH; [6]): 1.3 ± 0.2 mM
- Vmax (Polaromonas sp. ADH; [6]): 26.2 ± 0.9 µmol/min/mg
- kcat (Polaromonas sp. ADH; [6]): 720 ± 20 min⁻¹
- decrease of enzyme activity in forward reaction ([2]; addition of 100 mM): 3 times
- Deamination activity, ADH (ADH (Polaromonas sp.)): 100%
- Deamination activity, ADH-Re (ADH-Re): 100%
- Deamination activity, ADH-Bj (ADH-Bj): 100 ± 11%
- Deamination activity, ADH1-Rp (ADH1-Rp): 100 ± 8%
- Km [3, 7]: 27 ± 4 mM
- Vmax [3, 7]: 14.3 ± 0.9 µmol/min/mg
- kcat [3, 7]: 440 ± 30 min⁻¹
- Km [4, 6]: 13.4 ± 0.5 mM
- Vmax [4, 6]: 5.61 ± 0.08 µmol/min/mg
- kcat [4, 6]: 172 ± 2 min⁻¹

SMILES: N[C@@H](CCC(=O)O)C(=O)O [Glutamate]
- effect on ADH activity in forward and reverse reactions ([2]; addition of 1 mM): not significantly affected
- Deamination activity, ADH (ADH (Polaromonas sp.)): na (no activity (<2%))
- Deamination activity, ADH-Re (ADH-Re): na (no activity (<2%))
- Deamination activity, ADH-Bj (ADH-Bj): 5.5 ± 1.1%
- Deamination activity, ADH1-Rp (ADH1-Rp): 4.5 ± 0.4%
- ability to replace aspartic acid in reverse reaction [1]: No activity

SMILES: Cl.N [NH4Cl]
- Km (Polaromonas sp. ADH; [8]): 33 mM
- Vmax (Polaromonas sp. ADH; [8]): 83 ± 3 µmol/min/mg
- kcat (Polaromonas sp. ADH; [8]): 2280 ± 80 min⁻¹
- Km [5]: 12 mM and 11.9 mM
- Vmax [5]: 113 ± 4 µmol/min/mg
- kcat [5]: 3400 ± 120 min⁻¹
- inhibition of the reverse reaction of aspartic acid deamination ([2]; addition of 1 mM): did not significantly inhibit
- Km [3, 8]: 4.3 mM and 4 mM
- Vmax [3, 8]: 48 ± 2 µmol/min/mg
- kcat [3, 8]: 1480 ± 50 min⁻¹
- Km [4, 8]: 11 mM and 11.3 mM
- Vmax [4, 8]: 20.2 ± 0.6 µmol/min/mg
- kcat [4, 8]: 620 ± 20 min⁻¹

SMILES: O=C(O)CC(=O)C(=O)O [Oxaloacetate]
- Amination activity, ADH (ADH (Polaromonas sp.)): 100 ± 3%

SMILES: CC(=O)SCCNC(=O)CCNC(=O)[C@H](O)C(C)(C)COP(=O)(O)OP(=O)(O)OC[C@H]1O[C@@H](n2cnc3c(N)ncnc32)[C@H](O)[C@@H]1OP(=O)(O)O [acetyl-coenzyme A]
- effect on ADH activity in forward and reverse reactions ([2]; addition of 1 mM): not significantly affected

SMILES: NC(=O)C[C@H](N)C(=O)O [asparagine]
- ability to replace aspartic acid in reverse reaction [1]: No activity

SMILES: CC(C)(COP(=O)(O)OP(=O)(O)OC[C@H]1O[C@@H](n2cnc3c(N)ncnc32)[C@H](O)[C@@H]1OP(=O)(O)O)[C@@H](O)C(=O)NCCC(=O)NCCS [coenzyme A]
- effect on ADH activity in forward and reverse reactions ([2]; addition of 1 mM): not significantly affected

SMILES: CC[C@H](C)[C@H](N)C(=O)O [isoleucine]
- ability to replace aspartic acid in reverse reaction [1]: No activity

SMILES: CC(C)C(=O)C(=O)O [ketoisovaleriate]
- Amination activity, ADH (ADH (Polaromonas sp.)): na (no activity (<0.2%))
- Amination activity, ADH-Re (ADH-Re): na (no activity (<0.2%))
- ability to replace oxaloacetate in forward reaction [1]: No activity

SMILES: CCC(C)C(=O)C(=O)O (stereo not shown) [ketomethylvaleriate]
- Amination activity, ADH (ADH (Polaromonas sp.)): na (no activity (<0.2%))
- Amination activity, ADH-Re (ADH-Re): na (no activity (<0.2%))
- ability to replace oxaloacetate in forward reaction [1]: No activity
